“And” between values parts separate entries of the source, which are not always exact repeats. Equal entries are not always repeated.
Key:
Vasopressin V2 = Vasopressin V2 (Rattus norvegicus, UniProt Q00788); assay: Vasopressin V2 agonist effects in normal conscious water-loaded rats; type: in vivo; parameters: from tissue; host or cells: whole living Sprague-Dawley rat; the receptor is the animal's own (renal, by own knowledge); conditions: Sprague-Dawley (CD) rats, 10 mg/kg oral; for Osmolality (% Increase): change in osmolality as percent of control; for Urine Volume (% decrease): vs. control, urine collected four hours
Excerpt: Vasopressin V2 Agonist Effects of Test Compounds in Normal Conscious Water-loaded Rats
Male or female normotensive Sprague-Dawley rats (Charles River Laboratories, Inc., Kingston, N.Y.) of 350-500 g body weight were supplied with standard rodent diet (Purina Rodent Lab. Chow 5001) and water ad libitum. On the day of test, rats were placed individually into metabolic cages equipped with devices to separate the feces from the urine and containers for collection of urine. […] The vehicle used was 20% dimethylsulfoxide (DMSO) in 2.5% preboiled corn starch. Thirty minutes after dosing the test compound, rats were gavaged with water at 30 ml/kg into the stomach using a feeding needle. During the test, rats were not provided with water or food. Urine was collected for four hours after dosing of the test compound. At the end of four hours, urine volume was measured. Urinary osmolality was determined using a Fiske One-Ten Osmometer (Fiske Associates, Norwood, Mass., 02062) or an Advanced CRYOMATIC Osmometer, Model 3C.2 (Advanced Instruments, Norwood, Mass.). Determinations of Na^+, K^+ and Cl^− ion were carried out using ion specific electrodes in a Beckman SYNCHRON EL-ISE Electrolyte System analyzer. The urinary osmolality should increase proportionally. In the screening test, two rats were used for each compound. If the difference in the urine volume of the two rats was greater than 50%, a third rat was used.

Chain of Vasopressin V2 (Q00788 whole entry): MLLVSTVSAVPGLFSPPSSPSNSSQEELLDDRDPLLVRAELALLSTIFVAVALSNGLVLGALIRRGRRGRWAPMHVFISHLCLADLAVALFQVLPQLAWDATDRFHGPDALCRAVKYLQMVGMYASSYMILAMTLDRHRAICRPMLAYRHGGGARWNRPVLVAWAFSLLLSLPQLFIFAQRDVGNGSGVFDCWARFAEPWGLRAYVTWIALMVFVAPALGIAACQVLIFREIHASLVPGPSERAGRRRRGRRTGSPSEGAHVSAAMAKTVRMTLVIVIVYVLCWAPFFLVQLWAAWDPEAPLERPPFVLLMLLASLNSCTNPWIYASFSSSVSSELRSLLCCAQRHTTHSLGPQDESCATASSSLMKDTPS

In the case of Cc1cn(-c2ccc(C(=O)N3Cc4cccn4Cc4ccccc43)cc2)cn1 [Example 64, [4-(4-Methyl-imidazol-1-yl)-phenyl]-(5H,11H-pyrrolo[2,1-c][1,4]-benzodiazepin-10-yl)-methanone], the “Osmolality (% Increase)” value (Vasopressin V2) was 349%, the “Urine Volume (% decrease)” value (Vasopressin V2) was 79% and the melting point was 140 to 145 °C.
In the case of Cc1ccn(-c2ccc(C(=O)N3Cc4cccn4Cc4ccccc43)c(Cl)c2)n1 (single isomer, unassigned) [Example 9A], the “Osmolality (% Increase)” value (Vasopressin V2) was 325%, the “Urine Volume (% decrease)” value (Vasopressin V2) was 70% and the melting point was 137 to 138 °C and 141 to 143 °C.
For Cc1ccn(-c2ccc(C(=O)N3Cc4ccc(CN(C)C)n4Cc4ccccc43)c(Cl)c2)n1 [Example 87, [2-Chloro-4-(3-methyl-pyrazol-1-yl)-phenyl]-(3-dimethylaminomethyl-5H,11H-pyrrolo[2,1-c][1,4]benzodiazepin-10-yl)-methanone], the “Osmolality (% Increase)” value (Vasopressin V2) was 214%, the “Urine Volume (% decrease)” value (Vasopressin V2) was 71% and the melting point was 100 to 102 °C.
In the case of Cn1ccc(-c2ccc(C(=O)N3Cc4cccn4Cc4ccccc43)c(Cl)c2)n1 [Example 71, [2-Chloro-4-(1-methyl-1H-pyrazol-3-yl)-phenyl]-(5H,11H-pyrrolo[2,1-c]-[1,4]benzodiazepine-10-yl)-methanone], the “Osmolality (% Increase)” value (Vasopressin V2) was 264%, the “Urine Volume (% decrease)” value (Vasopressin V2) was 84% and the melting point was 148.5 to 150 °C.
For Cc1ncn(-c2ccc(C(=O)N3Cc4cccn4Cc4ccccc43)c(Cl)c2)n1 [Example 102, [2-Chloro-4-(3-methyl-1,2,4-triazol-1-yl)-phenyl](5H,11H-pyrrolo[2,1-c]-[1,4]benzodiazepin-10-yl)-methanone], the melting point was 191 to 193 °C.
For O=C(c1ccc(-c2nnn[nH]2)cc1Cl)N1Cc2cccn2Cc2ccccc21 [Example 86, [2-Chloro-4-(1H-tetrazol-5-yl)-phenyl]-(5H,11H-pyrrolo[2,1-c][1,4]benzodiazepin-10-yl)-methanone], the “Osmolality (% Increase)” value (Vasopressin V2) was 86%, the “Urine Volume (% decrease)” value (Vasopressin V2) was 5% and the melting point was 218 to 220 °C.
In the case of CC(=O)c1ccc(C(=O)N2Cc3cccn3Cc3ccccc32)c(Cl)c1 [Example 121, 1-[4-(5H,11H-pyrrolo[2,1-c][1,4]benzodiazepine-10-carbonyl)-3-chlorophenyl]-ethanone], the “Osmolality (% Increase)” value (Vasopressin V2) was 155%, the “Urine Volume (% decrease)” value (Vasopressin V2) was 22% and the melting point was 98 to 100 °C.
With Cc1ccn(-c2ccc(C(=O)N3Cc4cccn4Cc4ccccc43)c(Cl)n2)n1 [Example 100, [2-Chloro-6-(3-methylpyrazol-1-yl)-pyridin-3-yl]-(5H,11H-pyrrolo[2,1-c][1,4]benzodiazepin-10-yl)-methanone] the “Osmolality (% Increase)” value (Vasopressin V2) was 248%, the “Urine Volume (% decrease)” value (Vasopressin V2) was 24% and the melting point was 171 to 172 °C.
With Cn1cc(-c2ccc(C(=O)N3Cc4cccn4Cc4ccccc43)cc2)cn1 [Example 55, [4-(1-Methyl-1H-pyrazol-4-yl)-phenyl]-(5H,11H-pyrrolo[2,1-c][1,4]-benzodiazepin-10-yl)-methanone] the “Osmolality (% Increase)” value (Vasopressin V2) was 164%, the “Urine Volume (% decrease)” value (Vasopressin V2) was 80% and the melting point was 200 to 201 °C.
With Cc1ccn(-c2ccc(C(=O)O)c(Cl)c2)n1 [Example 97, 2-Chloro-4-(3-methyl-1H-pyrazol-1-yl)-benzoic Acid] the “Osmolality (% Increase)” value (Vasopressin V2) was 106%, the “Urine Volume (% decrease)” value (Vasopressin V2) was 3% and the melting point was 192 to 193 °C.
In the case of Cn1cc(-c2ccc(C(=O)N3Cc4cccn4Cc4ccccc43)cn2)cn1 [Example 57, [6-(1-Methyl-1H-pyrazol-4-yl)-pyridin-3-yl]-(5H,11H-pyrrolo[2,1-c][1,4]-benzodiazepin-10-yl)-methanone], the “Osmolality (% Increase)” value (Vasopressin V2) was 288%, the “Urine Volume (% decrease)” value (Vasopressin V2) was 77% and the melting point was 173 to 175 °C.
Work on Cc1ncn(-c2ccc(C(=O)N3Cc4cccn4Cc4ccccc43)c(C(F)(F)F)c2)n1 [Example 103, [4-(3-Methyl-1,2,4-triazol-1yl)-2-trifluoromethyl-phenyl](5H,11H-pyrrolo[2,1-c][1,4]benzodiazepin-10-yl)-methanone] yielded a melting point of 148 to 150 °C.
O=C(c1ccc(-c2ncn[nH]2)cc1)N1Cc2cccn2Cc2ccccc21 [Example 48, (5H,11H-Pyrrolo[2,1-c][1,4]benzodiazepin-10-yl)-[4-(2H-[1,2,4]triazol-3-yl)-phenyl]-methanone] gave a melting point of 225 to 227 °C.
In the case of Cc1ccn(-c2ccc(C(=O)N3Cc4cccn4Cc4ccccc43)c(F)c2)n1 [Example 92, [2-Fluoro-4-(3-methyl-pyrazol-1-yl)-phenyl]-(5H,11H-pyrrolo[2,1-c][1,4]-benzodiazepin-10-yl)-methanone], the “Osmolality (% Increase)” value (Vasopressin V2) was 454%, the “Urine Volume (% decrease)” value (Vasopressin V2) was 69% and the melting point was 192 to 193 °C.
For O=C(c1ccc(-n2ccc(C(F)(F)F)n2)cc1)N1Cc2cccn2Cc2ccccc21 [Example 62, (5H,11H-Pyrrolo[2,1-c][1,4]benzodiazepin-10-yl)-[4-(3-trifluoromethyl-pyrazol-1-yl)-phenyl]-methanone], the “Osmolality (% Increase)” value (Vasopressin V2) was 150%, the “Urine Volume (% decrease)” value (Vasopressin V2) was 22% and the melting point was 166 to 167 °C.
For Cc1ccn(-c2ccc(C(=O)N3Cc4ccc(C)n4Cc4ccccc43)c(Cl)c2)n1 [Example 18, [2-Chloro-4-(3-methylpyrazol-1-yl)-phenyl]-(3-methyl-5H,11H-pyrrolo[2,1-c][1,4]benzodiazepin-10-yl)-methanone], the “Osmolality (% Increase)” value (Vasopressin V2) was 214%, the “Urine Volume (% decrease)” value (Vasopressin V2) was 52% and the melting point was 178 to 180 °C.
For “[2-Chloro-4-(2-methyl-2H-[1,2,4]triazol-3-yl)-phenyl]-(5H,11H-pyrrolo [2,1-c][1,4]benzodiazepin-10-carbonyl)-methanone [Example 84]”, the “Osmolality (% Increase)” value (Vasopressin V2) was 291% and the “Urine Volume (% decrease)” value (Vasopressin V2) was 56%.
For Cc1cnn(-c2ncc(C(=O)N3Cc4cccn4Cc4ccccc43)c(C(F)(F)F)n2)c1 [Example 21, [2-(4-Methyl-pyrazol-1-yl)-4-trifluoromethyl-pyrimidin-5-yl]-(5H,11H-pyrrolo[2,1-c][1,4]benzodiazepin-10-yl)-methanone], the “Osmolality (% Increase)” value (Vasopressin V2) was 181% and the “Urine Volume (% decrease)” value (Vasopressin V2) was 49%.
O=C(c1ccc(-n2ccnc2)cc1)N1Cc2cccn2Cc2ccccc21 [Example 63, [4-(Imidazol-1-yl)-phenyl]-(5H,11H-pyrrolo[2,1-c][1,4]benzodiazepin-10-yl)-methanone] showed a melting point of 171 to 172 °C.
In the case of Cn1nccc1-c1ccc(C(=O)N2Cc3ccnn3Cc3ccccc32)cc1 [Example 120B, [4-(2-Methyl-1H-pyrazol-3-yl)phenyl](4H,1OH-pyrazolo[5,1c][1,4]-benzodiazepin-5-yl)methanone], the “Osmolality (% Increase)” value (Vasopressin V2) was 272% and the “Urine Volume (% decrease)” value (Vasopressin V2) was 67%.
In the case of Cc1cn(-c2ccc(C(=O)N3Cc4cccn4Cc4ccccc43)c(C(F)(F)F)c2)cn1 [Example 6, [4-(4-Methyl-imidazol-1-yl)-2-trifluoromethyl-phenyl]-(5H,11H-pyrrolo[2,1-c][1,4]benzodiazepin-10-yl)-methanone], the “Osmolality (% Increase)” value (Vasopressin V2) was 270% and the “Urine Volume (% decrease)” value (Vasopressin V2) was 58%.
For O=C(c1ccc(-c2ccn(C(=O)c3ccccc3-c3ccc(C(F)(F)F)cc3)n2)cc1)N1Cc2cccn2Cc2ccccc21 [Example 41, {4-[1-(4′-Trifluoromethyl-biphenyl-2-carbonyl)-1H-pyrazol-3-yl]-phenyl}-(5H,11H-pyrrolo[2,1-c][1,4]benzodiazepin-10-yl)-methanone], the “Osmolality (% Increase)” value (Vasopressin V2) was 240% and the “Urine Volume (% decrease)” value (Vasopressin V2) was 69%.
